Structures are written as SMILES. Read-outs that look alike come from different tables or passages of the source. *1 amine or outer side, *2 acyl side, *3 side chain or, on linkers, in order; H or OH if unused. Where a SMILES comes first, the peptide text is derived from it. [ ]: non-standard residue; d: D form. The star is where a group is joined. X1 = Cc1nc(N[*:1])sc1-c1cc(C(=O)[*:2])n[nH]1; Bz = O=C(c1ccccc1)*

Among the data in article doi:10.1101/2024.01.03.574093v2 (biorxiv, 2024) are Emax values, retold here.

Holding throughout (experiment): cell-based
Experiment [1] has as its target T1, JHR (GCE:TAI) (Drosophila melanogaster, UniProt Q9VXW7). To be noted: Drosophila Kc167, read-out: JHR Efficacy [%].
Experiment [2] concerns the target T2, human AHR (Homo sapiens, UniProt P35869). Further details: species or system HepG2 (AZ-AHR). To be noted: HepG2, read-out: AHR Efficacy [%], AGO.
Experiment [3] deals with T1, JHR (GCE:TAI). To be noted: Drosophila Kc167, read-out: JHR Efficacy [%]. The source holds these as a separate data set.
In experiment [4] the target is T2, human AHR. More on the design: species or system HepG2 (AZ-AHR). The following applies: HepG2, read-out: AHR Efficacy [%].

T1 sequence (Q9VXW7 1-959): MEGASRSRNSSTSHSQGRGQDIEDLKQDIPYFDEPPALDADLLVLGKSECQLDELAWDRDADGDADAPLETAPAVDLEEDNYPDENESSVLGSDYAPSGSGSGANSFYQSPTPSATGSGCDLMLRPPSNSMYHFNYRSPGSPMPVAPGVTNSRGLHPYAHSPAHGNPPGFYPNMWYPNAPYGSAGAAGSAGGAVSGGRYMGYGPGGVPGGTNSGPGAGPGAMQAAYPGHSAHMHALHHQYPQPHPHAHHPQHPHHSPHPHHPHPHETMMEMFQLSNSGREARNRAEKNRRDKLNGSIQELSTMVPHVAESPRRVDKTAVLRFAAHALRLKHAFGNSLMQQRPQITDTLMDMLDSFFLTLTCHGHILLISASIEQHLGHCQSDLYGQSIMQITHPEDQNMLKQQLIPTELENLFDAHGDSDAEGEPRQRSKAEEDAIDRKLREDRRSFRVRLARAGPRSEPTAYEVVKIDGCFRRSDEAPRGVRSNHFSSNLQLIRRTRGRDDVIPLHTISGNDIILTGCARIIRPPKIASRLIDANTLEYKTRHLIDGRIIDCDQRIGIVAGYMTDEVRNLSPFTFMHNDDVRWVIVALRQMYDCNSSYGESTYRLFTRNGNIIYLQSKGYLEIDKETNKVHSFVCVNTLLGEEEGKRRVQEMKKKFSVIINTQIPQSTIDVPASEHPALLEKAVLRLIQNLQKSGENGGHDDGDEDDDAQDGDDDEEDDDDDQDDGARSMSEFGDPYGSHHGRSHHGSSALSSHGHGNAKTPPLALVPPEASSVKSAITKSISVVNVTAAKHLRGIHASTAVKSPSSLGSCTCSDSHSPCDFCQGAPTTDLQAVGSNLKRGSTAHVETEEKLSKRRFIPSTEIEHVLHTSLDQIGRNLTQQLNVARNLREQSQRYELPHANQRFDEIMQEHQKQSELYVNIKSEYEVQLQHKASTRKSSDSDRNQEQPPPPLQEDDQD
T1 sequence (Q9VLD9 1-2026 partner): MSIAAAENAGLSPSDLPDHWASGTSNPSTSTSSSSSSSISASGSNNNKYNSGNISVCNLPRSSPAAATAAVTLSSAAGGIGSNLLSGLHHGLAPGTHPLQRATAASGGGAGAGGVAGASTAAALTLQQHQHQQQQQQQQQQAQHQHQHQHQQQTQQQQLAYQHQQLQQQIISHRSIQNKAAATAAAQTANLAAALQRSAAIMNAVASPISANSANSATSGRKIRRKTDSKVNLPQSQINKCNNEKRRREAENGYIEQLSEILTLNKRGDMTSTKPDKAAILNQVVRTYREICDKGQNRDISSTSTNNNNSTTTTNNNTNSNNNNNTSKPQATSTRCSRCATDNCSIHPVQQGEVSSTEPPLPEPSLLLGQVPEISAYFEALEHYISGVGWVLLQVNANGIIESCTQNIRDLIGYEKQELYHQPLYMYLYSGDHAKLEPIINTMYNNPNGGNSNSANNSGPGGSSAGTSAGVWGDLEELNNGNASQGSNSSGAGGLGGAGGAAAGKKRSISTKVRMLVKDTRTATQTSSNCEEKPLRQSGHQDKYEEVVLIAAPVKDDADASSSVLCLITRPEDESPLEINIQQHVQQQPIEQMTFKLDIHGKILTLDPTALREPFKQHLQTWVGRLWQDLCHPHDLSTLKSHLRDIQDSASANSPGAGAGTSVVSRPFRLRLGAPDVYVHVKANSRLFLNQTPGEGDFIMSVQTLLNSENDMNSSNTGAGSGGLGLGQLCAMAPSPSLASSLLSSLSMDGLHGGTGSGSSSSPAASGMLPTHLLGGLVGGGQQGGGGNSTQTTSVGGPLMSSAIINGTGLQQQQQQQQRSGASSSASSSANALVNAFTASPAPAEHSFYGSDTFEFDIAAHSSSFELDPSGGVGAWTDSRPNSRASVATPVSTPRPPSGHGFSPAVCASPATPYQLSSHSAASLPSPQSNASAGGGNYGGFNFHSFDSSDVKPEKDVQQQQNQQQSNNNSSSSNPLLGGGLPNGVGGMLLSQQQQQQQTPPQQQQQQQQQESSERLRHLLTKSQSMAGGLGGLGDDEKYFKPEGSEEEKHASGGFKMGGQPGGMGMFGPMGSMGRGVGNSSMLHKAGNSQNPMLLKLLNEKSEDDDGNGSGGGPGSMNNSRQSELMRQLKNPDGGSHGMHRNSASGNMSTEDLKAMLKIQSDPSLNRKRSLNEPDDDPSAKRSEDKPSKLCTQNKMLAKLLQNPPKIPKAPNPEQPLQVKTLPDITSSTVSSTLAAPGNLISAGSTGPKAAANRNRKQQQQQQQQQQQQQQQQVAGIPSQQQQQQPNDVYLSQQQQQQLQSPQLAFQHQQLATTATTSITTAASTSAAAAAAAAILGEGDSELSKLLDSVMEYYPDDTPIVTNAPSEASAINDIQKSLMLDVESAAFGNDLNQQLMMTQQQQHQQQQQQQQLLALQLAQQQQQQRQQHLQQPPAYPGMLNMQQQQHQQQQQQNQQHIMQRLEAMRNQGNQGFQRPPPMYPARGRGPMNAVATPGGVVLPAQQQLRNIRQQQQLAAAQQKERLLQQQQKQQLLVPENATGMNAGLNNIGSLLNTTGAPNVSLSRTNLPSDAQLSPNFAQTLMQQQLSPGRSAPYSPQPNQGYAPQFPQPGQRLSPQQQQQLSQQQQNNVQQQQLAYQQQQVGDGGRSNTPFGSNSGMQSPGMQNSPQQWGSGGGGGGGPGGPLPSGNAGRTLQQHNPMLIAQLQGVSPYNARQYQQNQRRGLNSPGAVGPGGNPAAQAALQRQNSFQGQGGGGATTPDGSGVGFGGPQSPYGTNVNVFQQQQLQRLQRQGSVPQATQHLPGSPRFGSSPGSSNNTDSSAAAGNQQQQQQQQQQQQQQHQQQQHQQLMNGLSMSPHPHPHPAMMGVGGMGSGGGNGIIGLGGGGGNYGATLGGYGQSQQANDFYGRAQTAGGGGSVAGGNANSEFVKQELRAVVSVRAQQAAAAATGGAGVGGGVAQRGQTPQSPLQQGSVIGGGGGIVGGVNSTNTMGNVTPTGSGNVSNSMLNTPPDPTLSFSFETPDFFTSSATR
T2 sequence (P35869 11-848): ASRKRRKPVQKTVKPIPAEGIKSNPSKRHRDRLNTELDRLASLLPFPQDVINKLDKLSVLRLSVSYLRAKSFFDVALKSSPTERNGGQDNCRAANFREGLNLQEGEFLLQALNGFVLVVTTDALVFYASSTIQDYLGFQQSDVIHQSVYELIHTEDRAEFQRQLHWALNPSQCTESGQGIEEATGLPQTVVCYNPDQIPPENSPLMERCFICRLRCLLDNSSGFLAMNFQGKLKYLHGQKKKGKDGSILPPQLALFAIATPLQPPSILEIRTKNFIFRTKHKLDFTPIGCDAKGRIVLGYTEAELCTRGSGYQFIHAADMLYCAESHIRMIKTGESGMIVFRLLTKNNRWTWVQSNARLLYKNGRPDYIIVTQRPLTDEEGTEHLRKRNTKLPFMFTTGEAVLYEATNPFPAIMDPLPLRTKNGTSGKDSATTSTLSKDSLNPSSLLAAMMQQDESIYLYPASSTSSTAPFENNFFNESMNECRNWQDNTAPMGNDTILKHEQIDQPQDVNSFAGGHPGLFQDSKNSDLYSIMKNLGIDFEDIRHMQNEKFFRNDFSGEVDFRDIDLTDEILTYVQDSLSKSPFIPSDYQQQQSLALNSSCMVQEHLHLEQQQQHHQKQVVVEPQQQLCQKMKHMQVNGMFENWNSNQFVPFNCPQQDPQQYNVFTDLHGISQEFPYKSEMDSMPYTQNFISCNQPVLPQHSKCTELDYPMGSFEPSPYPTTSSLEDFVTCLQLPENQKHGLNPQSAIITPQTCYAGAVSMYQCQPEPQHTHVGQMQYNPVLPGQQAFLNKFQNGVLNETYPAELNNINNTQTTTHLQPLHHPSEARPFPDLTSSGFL
T2 sequence (P27540 2-789 partner): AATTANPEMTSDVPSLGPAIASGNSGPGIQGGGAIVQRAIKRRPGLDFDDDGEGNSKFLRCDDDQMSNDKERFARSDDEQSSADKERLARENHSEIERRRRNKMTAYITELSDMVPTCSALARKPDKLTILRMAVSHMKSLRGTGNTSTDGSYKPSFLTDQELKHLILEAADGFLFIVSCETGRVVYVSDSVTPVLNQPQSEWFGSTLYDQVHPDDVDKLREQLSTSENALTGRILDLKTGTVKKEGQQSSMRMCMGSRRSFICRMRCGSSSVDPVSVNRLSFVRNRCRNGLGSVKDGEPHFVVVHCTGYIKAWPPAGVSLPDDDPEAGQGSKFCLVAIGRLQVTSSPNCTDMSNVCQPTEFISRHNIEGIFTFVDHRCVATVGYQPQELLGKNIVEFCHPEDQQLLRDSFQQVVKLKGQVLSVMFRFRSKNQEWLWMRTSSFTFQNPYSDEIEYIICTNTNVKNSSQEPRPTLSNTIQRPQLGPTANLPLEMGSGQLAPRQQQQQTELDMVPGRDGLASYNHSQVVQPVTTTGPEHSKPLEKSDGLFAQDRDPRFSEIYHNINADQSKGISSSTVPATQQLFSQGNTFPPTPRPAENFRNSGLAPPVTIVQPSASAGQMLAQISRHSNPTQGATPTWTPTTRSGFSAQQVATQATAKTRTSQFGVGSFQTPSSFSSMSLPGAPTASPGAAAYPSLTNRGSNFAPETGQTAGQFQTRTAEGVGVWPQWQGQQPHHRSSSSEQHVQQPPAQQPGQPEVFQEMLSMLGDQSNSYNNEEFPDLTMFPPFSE

For `Cc1c(C(=O)Nc2ccc3ncccc3c2)sc2ccccc12` [2.7, cmpd 2.7], the Emax on JHR (GCE:TAI) [1] is 85%.
For the molecule `Cc1nc(-c2ccsc2)sc1C(=O)Nc1cnn(C)c1` [cmpd 1.1], the results for the Emax at JHR (GCE:TAI) [1] and at human AHR [2] were 183% and 19%, respectively.
`O=C(CCSc1nnc2ccccn12)NC(=O)NCc1ccccc1` [cmpd 1.2]: on JHR (GCE:TAI) [3], the Emax stood at 83%.
In the case of `CC(C)c1c(C(=O)NCC2CCCO2)nnn1-c1ccc(Br)cc1` (stereo not shown) [cmpd 1.3], the Emax at JHR (GCE:TAI) [1] was 254%.
Same read-out and setting: in the case of `CN(C(=O)CN1CCOC(c2nccs2)C1)c1nccs1` (stereo not shown) [cmpd 1.4] it was 266%.
For `Cc1nc(NC(=O)c2ccccc2)sc1-c1cc(C(=O)NCC(=O)N[C@H](CCCN=C(N)N)C(=O)NCC(=O)N[C@H](CC(=O)O)C(=O)N[C@H](CC(=O)O)C(=O)N[C@H](CC(=O)O)C(N)=O)n[nH]1` [cmpd 2.1] (Bz-[X1]G[dR]G[dD][dD][dD]-NH2), the Emax stood at 143% on JHR (GCE:TAI) [1] and 52% on human AHR [2].
Consider `CC(Sc1nccn1C)C(=O)Nc1nc(-c2ccccc2)cs1` (stereo not shown) [cmpd 2.2], for which the Emax on human AHR [4] is 103%; on JHR (GCE:TAI) [3], 110%.
For `O=C(Nc1ccc(-c2nccs2)cc1)c1ccccc1C(F)(F)F` [cmpd 2.3], the Emax on JHR (GCE:TAI) [3] is 88%.
Take `O=C(NCCCn1cccn1)c1ccc(C2CCCCC2)cc1` [cmpd 2.6]: the Emax at human AHR [4] worked out at 14%; at JHR (GCE:TAI) [3], 76%.
With `Cc1c(C(=O)NCCc2cccnc2)oc2ccc(F)cc12` [cmpd 2.8], the Emax on human AHR [4] was found to be 87%; on JHR (GCE:TAI) [3], 126%.
In the same order, the values of `OC(COc1ccc2cc(Br)ccc2c1)Cn1cccn1` (stereo not shown) [cmpd 2.9] are 19% and 70%.
In the same order, the values of `Cc1csc(CCNC(=O)c2cnc(-c3ccccc3)nc2)n1` [cmpd 2.10] are 30% and 128%.
In the same order, the values of `CC(NC(=O)CSCc1ccccc1)c1ccc(-n2ccnc2)cc1` (stereo not shown) [cmpd 2.12] are 45% and 109%.
For `CC(COc1ccc(Oc2ccccc2)cc1)Oc1ccccn1` (stereo not shown) [pyriproxyfen], the Emax at JHR (GCE:TAI) [3] stood at 62%.
